The nature of series [1]: Solubility of bumetanide free acid in water with and without tetradecyl-β-D-maltoside (HPLC). It is filed as physicochemical. The protocol: Bumetanide, 10 mg, in its free acid form was added to 1 mL of deionized water and mixed using a vortex and sonicator. The solution was filtered using a 0.22 μm nylon syringe filter. To 900 μL deionized water, 100 μL of the filtered bumetanide solution was added before being characterized for the concentration of the bumetanide in solution using HPLC. The concentration of bumetanide was determined using a standard curve generated by bumetanide solutions of known concentrations. […] Therefore, to the 10 mg of bumetanide, 1 mL of deionized water containing 1.0%, 0.5% or 0.1% of the surfactant tetradecyl-β-D-maltoside. The bumetanide was then solubilized using a vortex and sonicator, after which it was filtered using a 0.22 μm nylon syringe filter. To 900 μL deionized water, 100 μL of the filtered bumetanide solution was added before being characterized for the concentration of the bumetanide in solution using HPLC. The resulting bumetanide concentrations are recorded in Table 1.

Another series is described as follows: in vivo. Set-up: species or system beagle dogs. As to conditions: dog. How it is done: The purpose of this study was to assess the pharmacokinetic profiles of various formulations of bumetanide, including arginine bumetanide salts (FS-5 and FS-6) and potassium bumetanide salts (FS-3 and FS-4) for subcutaneous administration, and an bumetanide intranasal formulation (F82), which are described in Table 60, when each formulation is administered as a single subcutaneous, or intranasal in different vehicles when compared to single IV administration dose in male and female beagle dogs.
A total of four dogs were assigned to the study (3 males, 9-13 kg and 1 female, 7-10 kg) ranging from 1 to 3 years old.
The study was conducted in 6 Events in the same animals, separated by at least 48 hours or more washout period between events.
For subcutaneous administration the bumetanide formulations were injected subcutaneously (100 μL/dog), using a 25G hypodermic needle. After each application, successful dosing was verified by visual inspection of the dog injection site and after 1 minute of dosing. Only successful administrations will be accepted.
For intranasal administration, each dog was held in an upright position with the nose pointing up. The test article (50 μL) was delivered into each nostril (total 100 μL/dog). The nose was held pointing up for ˜60 seconds after dosing. After each application, successful dosing was verified by visual inspection of the pipette tip and the dog nostril.
For intravenous administration, the commercially available injection of bumetanide (Walgreens, 0.25 mg/mL) was used and administered via the cephalic vein over a period of 30 seconds (4.0 mL/dog, IV).
Body weights of the dogs were measured for each dog prior to each dose on the day of dose, and approximately 48 hours post-dose for each event. For some events, the 48 hour post-dose weight was the same weight as the pre-dose weight for the following dose. Urine production was also monitored post-dose to assess diuresis by making observations at 30 minutes, 1, 2, 3 and 4 hours post-dose. Urine volume was not measured. On each day of dosing, blood (˜600 μL/timepoint, jugular or cephalic vein) were collected in red top tubes with clotting activator (Sarstedt, Inc-41.1392.105 or similar) to obtain serum at the times described in Table 61. Blood was centrifuged at 5000×g for 10 minutes at 4° C. If the samples were collected outside the collection window, they were not be considered a protocol deviation. Serum was divided into 2 aliquots of ˜150 μL each and stored frozen at −20° C. until it was shipped to Climax Laboratories, Inc. on dry ice.

The nature of series [2]: Stability of arginine and potassium bumetanide salts over four weeks. It is filed as physicochemical. As to conditions: for stability of the salt solution: at either 5° C. or 25° C. The protocol:
The stability of the arginine and potassium bumetanide salts was monitored over a four week period with storage at either 2-8° C. or 25° C. for that time period. The bumetanide salt solutions were evaluated on the basis of pH, concentration of bumetanide in solution, the percent assay recovery and the presence of an impurity (see Tables 17 and 18).

Take `CCCCNc1cc(C(=O)O)cc(S(N)(=O)=O)c1Oc1ccccc1` [Bumetanide]: the solubility in water entry is “Nearly no bumetanide in the free acid form was soluble water” in series [1] (free acid form, deionized water, no surfactant) and “incredibly low solubility in water” in series [1] (not in a salt form, in the presence of surfactant). Further, the AUC was 140 ng·h/mL in the series “in vivo” (beagle, iv, 1 mg); 140 ng·h/mL in the series “in vivo” (beagle, iv, 1 mg, AUC (ng*h/mL)); 185 ng·h/mL in “in vivo” (both sexes, beagle, iv, 1 mg); 185 ng·h/mL in “in vivo” (both sexes, beagle, iv, 1 mg, AUC (ng*h/mL)). For the same molecule, the AUC(0-t) in the series “in vivo” (both sexes, beagle, iv, 1 mg) was found to be 185 ng·h/mL.

With `CCCCNc1cc(C(=O)O)cc(S(N)(=O)=O)c1Oc1ccccc1.N=C(N)NCCCC(N)C(=O)O` [arginine bumetanide salt], the Assay is 5.08 mg/mL in series [2] (1 week at 5° C.); 5.06 mg/mL in series [2] (1 week at 25° C.); 4.99 mg/mL in series [2] (2 weeks at 5° C.); 4.97 mg/mL in series [2] (2 weeks at 25° C.); 4.89 mg/mL in series [2] (4 weeks at 5° C.); 4.97 mg/mL in series [2] (4 weeks at 25° C.). Further, in series [2] (T0), the Assay came to 5.07 mg/mL. Besides, the pH in series [2] (1 week at 5° C.) came out at 7.0; in series [2] (1 week at 25° C.), 7.1; in series [2] (2 weeks at 5° C.), 7.0; in series [2] (2 weeks at 25° C.), 7.0; in series [2] (4 weeks at 5° C.), 7.0; in series [2] (4 weeks at 25° C.), 7.1. Further, in series [2] (T0), the pH is recorded as 7.0. Further, in series [2] (T0), the Osmolality turned out to be 335 mOsm/kg. For the same molecule, in series [2] (T0), the Viscosity is given as 1.3 cP. Further, the “stability of the salt solution” value in series [2] was “stable for up to four weeks”. In series [2] (initially or after four weeks, 5° C. and 25° C.), the “impurity by HPLC” value is “no impurity was detected”.

As for `CCCCNc1cc(C(=O)[O-])cc(S(N)(=O)=O)c1Oc1ccccc1.[K+]` [potassium bumetanide salt], the Assay in series [2] (1 week at 5° C.) was 5.18 mg/mL; in series [2] (1 week at 25° C.) it was 5.10 mg/mL; in series [2] (2 weeks at 5° C.), 4.97 mg/mL; in series [2] (2 weeks at 25° C.), 4.96 mg/mL; in series [2] (4 weeks at 5° C.), 5.00 mg/mL; in series [2] (4 weeks at 25° C.), 5.03 mg/mL. Besides, in series [2] (T0), the Assay is 5.10 mg/mL. The pH in series [2] (1 week at 5° C.) was determined as 7.0; in series [2] (1 week at 25° C.), 7.0; in series [2] (2 weeks at 5° C.), 7.0; in series [2] (2 weeks at 25° C.), 7.1; in series [2] (4 weeks at 5° C.), 7.0; in series [2] (4 weeks at 25° C.), 7.1. In series [2] (T0), the pH was found to be 7.0. In addition, the Osmolality in series [2] (T0) came to 317 mOsm/kg. Moreover, the Viscosity in series [2] (T0) came out at 1.3 cP. Besides, the “stability of the salt solution” value in series [2] is reported as “stable for up to four weeks”. In addition, the “serum concentrations compared to IV administration of bumetanide” value in “in vivo” is listed as “higher serum concentrations”.

As usually defined, the AUC is the area under the concentration-time curve, a measure of exposure. Higher therefore signals high exposure. In general, AUC(0-t) refers to exposure summed from dosing to a finite time, without extrapolation to infinity. High values mean high exposure, low ones low exposure.

Values taken from US20240285566A1, “SUBCUTANEOUS FORMULATION AND METHODS FOR TREATING EDEMA REFRACTORY TO ORAL DIURETICS” (RESQ Pharmaceuticals LLC, priority 2021, published 2024).
